Key:
[1] = tested on: MCF-7 human breast cancer cell line; test: Anti-proliferation assay (MTT), MCF-7; assay type: cell-based; conditions: MCF7, 24 h
Experimental: (§1) MCF-7 human breast cancer cells was cultured in DMEM/10% fetal bovine serum, in 5% CO2 water saturated atmosphere at 37 °C. MDA-MB-453 human breast cancer cells was cultured in L-15 medium in 100% air at 37 °C. Cell suspensions (10000/mL) were prepared and 100 μL/well dispensed into 96-well plates (Costar) giving 1000 cells/well. The plates were returned to the incubator for 24 h to allow the cells to reattach. These compounds were initially prepared at 20 mM in DMSO. Aliquots (200 μL) were diluted into 20 mL culture medium giving 200 μM, and 10 serial dilutions of 3× prepared. Aliquots (100 μL) of each dilution were added to the wells, giving doses ranging from 100 μM to 0.005 μM. After a further incubated at 37 °C for 24 h in a humidified atmosphere with 5% CO2, the cell viability was assessed by the conventional 3-(4,5-dimethylthiazol-2-yl)-2,5-diphenyltetrazolium bromide (MTT) reduction assay and carried out strictly according to the manufacturer instructions (Sigma). The absorbance at 590 nm was recorded using LX300 Epson Diagnostic micro-plate reader. Then GI50 was calculated using SPSS 13.0 software.

[2] = tested on: MDA-MB-453 human breast cancer cell line; test: Anti-proliferation assay (MTT), MDA-MB-453; assay type: cell-based; conditions: 24 h
Experimental: as §1

[3] = target: HER-2 (Homo sapiens, UniProt P04626); test: HER-2 autophosphorylation kinase assay (DELFIA/time-resolved fluorometry); conditions: for SI EGFR/HER-2: selectivity index, IC50 EGFR/IC50 HER-2
HER-2, sequence (P04626 676-1245): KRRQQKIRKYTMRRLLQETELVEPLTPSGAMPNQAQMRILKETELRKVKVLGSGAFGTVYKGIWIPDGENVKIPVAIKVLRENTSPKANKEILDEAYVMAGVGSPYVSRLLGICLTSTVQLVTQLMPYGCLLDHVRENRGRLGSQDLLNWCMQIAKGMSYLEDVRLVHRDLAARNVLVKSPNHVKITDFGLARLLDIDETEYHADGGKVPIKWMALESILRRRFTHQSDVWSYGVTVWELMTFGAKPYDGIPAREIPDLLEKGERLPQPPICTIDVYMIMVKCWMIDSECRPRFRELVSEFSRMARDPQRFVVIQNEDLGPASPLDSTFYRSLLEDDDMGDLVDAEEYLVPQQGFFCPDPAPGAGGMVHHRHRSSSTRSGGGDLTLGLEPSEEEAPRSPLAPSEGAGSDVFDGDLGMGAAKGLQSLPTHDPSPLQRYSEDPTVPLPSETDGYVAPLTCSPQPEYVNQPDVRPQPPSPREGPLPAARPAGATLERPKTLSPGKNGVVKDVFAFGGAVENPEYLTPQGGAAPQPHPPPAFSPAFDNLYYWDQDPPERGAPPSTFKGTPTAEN
Experimental: (§2) A sequence that encodes (His)6 was located at the 5′ upstream to the HER-2 and EGFR sequences. Sf-9 cells were infected for 3 days for protein expression. Sf-9 cell pellets were solubilized at 0 °C in a buffer at pH 7.4 containing 50 mM HEPES, 10 mM NaCl, 1% Triton, 10 μM ammonium molybdate, 100 μM sodium vanadate, 10 μg/mL aprotinin, 10 μg/mL leupeptin, 10 μg/mL pepstatin, and 16 μg/mL benzamidine, HCl for 20 min followed by 20 min centrifugation. Crude extract supernatant was passed through an equilibrated Ni–NTA superflow packed column and washed with 10 mM and then 100 mM imidazole to remove nonspecifically bound material. Histidine-tagged proteins were eluted with 250 and 500 mM imidazole and dialyzed against 50 mM NaCl, 20 mM HEPES, 10% glycerol and 1 μg/mL each of aprotinin, leupeptin, and pepstatin for 2 h. The entire purification procedure was performed at 4 °C or on ice.
(§3) Both EGFR and HER-2 kinase assays were set up to assess the level of autophosphorylation based on DELFIA/Time-Resolved Fluorometry. […] Then, 10 μL of 5× buffer (containing 20 mM HEPES, 2 mM MnCl2, 100 μM Na3VO4, and 1 mM DTT) and 20 μL of 0.1 mM ATP-50 mM MgCl2 was added for 1 h. Positive and negative controls were included in each plate by incubation of enzyme with or without ATP-MgCl2. At the end of incubation, liquid was aspirated and plates were washed three times with wash buffer. A 75 μL (400 ng) sample of europium-labeled anti-phosphotyrosine antibody was added to each well for another 1 h of incubation. […] The IC50 was obtained from curves of percentage inhibition with eight concentrations of compound. As the contaminants in the enzyme preparation are fairly low, the majority of the signal detected by the anti-phosphotyrosine antibody is from EGFR or HER-2. The experiment was performed for three independent times and in triplicate each time.

[4] = target: EGFR (Homo sapiens, UniProt P00533); test: EGFR autophosphorylation kinase assay (DELFIA/time-resolved fluorometry)
EGFR, sequence (P00533 669-1210): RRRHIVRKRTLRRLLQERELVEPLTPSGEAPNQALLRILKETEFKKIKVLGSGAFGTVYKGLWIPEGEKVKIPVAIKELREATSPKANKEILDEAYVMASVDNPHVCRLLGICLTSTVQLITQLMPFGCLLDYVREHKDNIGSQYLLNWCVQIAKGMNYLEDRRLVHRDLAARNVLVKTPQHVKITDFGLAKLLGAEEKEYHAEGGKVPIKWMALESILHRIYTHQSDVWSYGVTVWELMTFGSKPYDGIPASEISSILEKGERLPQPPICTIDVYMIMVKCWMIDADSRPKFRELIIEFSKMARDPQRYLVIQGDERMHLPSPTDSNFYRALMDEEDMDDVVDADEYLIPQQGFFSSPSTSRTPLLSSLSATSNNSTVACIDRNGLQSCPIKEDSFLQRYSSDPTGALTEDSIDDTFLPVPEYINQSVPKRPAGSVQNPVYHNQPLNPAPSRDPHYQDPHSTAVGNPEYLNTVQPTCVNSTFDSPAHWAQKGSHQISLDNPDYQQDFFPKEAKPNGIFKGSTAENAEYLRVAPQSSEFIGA
Experimental: as §2, §3

Structure (SMILES) | GI50 [1] | GI50 [2] | IC50 [3] | SI EGFR/HER-2 [3] | melting point | IC50 [4]
NC(=S)N1N=C(c2ccc3c(c2)OCCO3)CC1c1c(F)cccc1F (stereo not shown) [Compound C18, 5-(2,6-difluorophenyl)-3-(2,3-dihydrobenzo[b][1,4]dioxin-6-yl)-4,5-dihydro-1H-pyrazole-1-carbothioamide] | 15.2 ± 1.4 µM | 8.68 ± 0.84 µM | 0.96 ± 0.08 µM | 35.4 | 208 to 209 °C | 34 ± 3.08 µM
NC(=S)N1N=C(c2ccc3c(c2)OCCO3)CC1c1cccc(OCc2ccccc2)c1 (stereo not shown) [Compound C6, 5-(3-(benzyloxy)phenyl)-3-(2,3-dihydrobenzo[b][1,4]dioxin-6-yl)-4,5-dihydro-1H-pyrazole-1-carbothioamide] | 4.95 ± 0.43 µM | 0.2 ± 0.02 µM | 0.06 ± 0.004 µM | 74.8 | 178 to 180 °C | 4.49 ± 0.41 µM
NC(=S)N1N=C(c2ccc3c(c2)OCCO3)CC1c1ccccc1 (stereo not shown) [Compound C1, 3-(2,3-dihydrobenzo[b][1,4]dioxin-6-yl)-5-phenyl-4,5-dihydro-1H-pyrazole-1-carbothioamide] | 10 ± 0.91 µM | 63.4 ± 6.12 µM | 16 ± 1.45 µM | 1.36 | 166 to 168 °C | 21.9 ± 2.03 µM
C#Cc1cccc(Nc2ncnc3cc(OCCOC)c(OCCOC)cc23)c1 [Erlotinib, reference compound] | 0.08 ± 0.006 µM | 1.56 ± 0.14 µM | – | – | – | –
NC(=S)N1N=C(c2ccc3c(c2)OCCO3)CC1c1ccc(Cl)cc1 (stereo not shown) [Compound C12, 5-(4-chlorophenyl)-3-(2,3-dihydrobenzo[b][1,4]dioxin-6-yl)-4,5-dihydro-1H-pyrazole-1-carbothioamide] | 33.9 ± 3.21 µM | 5.31 ± 0.48 µM | 0.84 ± 0.07 µM | 64.1 | 231 to 233 °C | 53.8 ± 5.12 µM
NC(=S)N1N=C(c2ccc3c(c2)OCCO3)CC1c1ccc2ccccc2c1 (stereo not shown) [Compound C3, 3-(2,3-dihydrobenzo[b][1,4]dioxin-6-yl)-5-(naphthalen-2-yl)-4,5-dihydro-1H-pyrazole-1-carbothioamide] | 5.3 ± 0.49 µM | 19.9 ± 1.84 µM | 7.18 ± 0.65 µM | 0.62 | 204 to 206 °C | 4.42 ± 0.35 µM
NC(=S)N1N=C(c2ccc3c(c2)OCCO3)CC1c1cccc(Br)c1 (stereo not shown) [Compound C8, 5-(3-bromophenyl)-3-(2,3-dihydrobenzo[b][1,4]dioxin-6-yl)-4,5-dihydro-1H-pyrazole-1-carbothioamide] | 5.64 ± 0.52 µM | 1.69 ± 0.15 µM | 0.45 ± 0.04 µM | 19.2 | 247 to 249 °C | 8.63 ± 0.78 µM
NC(=S)N1N=C(c2ccc3c(c2)OCCO3)CC1c1ccc(OCc2ccccc2)cc1 (stereo not shown) [Compound C16, 5-(4-(benzyloxy)phenyl)-3-(2,3-dihydrobenzo[b][1,4]dioxin-6-yl)-4,5-dihydro-1H-pyrazole-1-carbothioamide] | 5.99 ± 0.55 µM | 0.36 ± 0.03 µM | 0.13 ± 0.01 µM | 78.5 | 197 to 199 °C | 10.2 ± 0.94 µM
NC(=S)N1N=C(c2ccc3c(c2)OCCO3)CC1c1ccc(F)cc1 (stereo not shown) [Compound C11, 3-(2,3-dihydrobenzo[b][1,4]dioxin-6-yl)-5-(4-fluorophenyl)-4,5-dihydro-1H-pyrazole-1-carbothioamide] | 28.5 ± 2.8 µM | 11.9 ± 1.05 µM | 1.9 ± 0.15 µM | 25.2 | 235 to 237 °C | 47.8 ± 4.54 µM
NC(=S)N1N=C(c2ccc3c(c2)OCCO3)CC1c1cccc2ccccc12 (stereo not shown) [Compound C2, 3-(2,3-dihydrobenzo[b][1,4]dioxin-6-yl)-5-(naphthalen-1-yl)-4,5-dihydro-1H-pyrazole-1-carbothioamide] | 4.68 ± 0.42 µM | 2.2 ± 0.18 µM | 0.56 ± 0.05 µM | 5.25 | 214 to 216 °C | 2.94 ± 0.26 µM
NC(=S)N1N=C(c2ccc3c(c2)OCCO3)CC1c1ccc(I)cc1 (stereo not shown) [Compound C14, 3-(2,3-dihydrobenzo[b][1,4]dioxin-6-yl)-5-(4-iodophenyl)-4,5-dihydro-1H-pyrazole-1-carbothioamide] | 135 ± 11.6 µM | 9.12 ± 0.89 µM | 1.23 ± 0.1 µM | 68.5 | 259 to 261 °C | 84.3 ± 7.81 µM
NC(=S)N1N=C(c2ccc3c(c2)OCCO3)CC1c1cccc(Cl)c1 (stereo not shown) [Compound C7, 5-(3-chlorophenyl)-3-(2,3-dihydrobenzo[b][1,4]dioxin-6-yl)-4,5-dihydro-1H-pyrazole-1-carbothioamide] | 16.8 ± 0.98 µM | > 300 µM | 62.8 ± 5.67 µM | 0.15 | 246 to 248 °C | 9.45 ± 0.88 µM
NC(=S)N1N=C(c2ccc3c(c2)OCCO3)CC1c1ccco1 (stereo not shown) [Compound C19, 3-(2,3-dihydrobenzo[b][1,4]dioxin-6-yl)-5-(furan-2-yl)-4,5-dihydro-1H-pyrazole-1-carbothioamide] | > 300 µM | 33.4 ± 2.95 µM | 12 ± 1.02 µM | 16.3 | 174 to 175 °C | 197 ± 18.5 µM
NC(=S)N1N=C(c2ccc3c(c2)OCCO3)CC1c1ccccc1F (stereo not shown) [Compound C4, 3-(2,3-dihydrobenzo[b][1,4]dioxin-6-yl)-5-(2-fluorophenyl)-4,5-dihydro-1H-pyrazole-1-carbothioamide] | 185 ± 17.8 µM | > 300 µM | 125 ± 10.2 µM | 0.47 | 169 to 171 °C | 59.3 ± 5.58 µM
COc1cccc(C2CC(c3ccc4c(c3)OCCO4)=NN2C(N)=S)c1 (stereo not shown) [Compound C5, 3-(2,3-dihydrobenzo[b][1,4]dioxin-6-yl)-5-(3-methoxyphenyl)-4,5-dihydro-1H-pyrazole-1-carbothioamide] | 57.2 ± 5.36 µM | 135 ± 11.1 µM | 86.5 ± 8.05 µM | 0.50 | 168 to 170 °C | 43.6 ± 4.1 µM
CS(=O)(=O)CCNCc1ccc(-c2ccc3ncnc(Nc4ccc(OCc5cccc(F)c5)c(Cl)c4)c3c2)o1 [Lapatinib, reference compound] | 3.12 ± 0.24 µM | 0.03 ± 0.002 µM | – | – | – | –
